Measured values reported in patent US20220088031A1, “METHODS AND COMPOSITIONS FOR TREATING RESISTANT AND RECURRENT FORMS OF CANCER” (Health Research, Inc., priority 2019, published 2022).

How the values were obtained:
E006AA cells [1] = experiment: Cell death quantification, Trypan blue exclusion assay; type: cell-based, human; settings: combined treatment with DOC (24 hrs)
Description: (§1) Cell viability assay: PCa cells (5×10^4 cells/well) were seeded on 6-well cell culture plates and incubated with DOC (1-20 nM) for 24 hrs. Floating and attached cells were collected using trypsinization. Live and dead cells were counted under a light microscope using a trypan blue exclusion assay.

E006AA cells [2] = experiment: Caspase-3 (DEVDase) activity assay; type: cell-based, human
Description: (§2) Caspase-3 (DEVDase) activity assay: PCa cell lysates prepared in NP40 lysis buffer were incubated with DEVD-AFC (caspase-3 substrate) at 37° C. for 90 min in caspase activity assay buffer (50 mM HEPES pH 7.4, 150 mM NaCl, 1% CHAPS, 1 mM EDTA, 1 mM DTT, 50% glycerol). Fluorescence intensity was detected using a Synergy microplate reader at excitation and emission wavelengths of 400 nm and 508 nm, respectively. Arbitrary fluorescence units were normalized with protein content of cell lysates and represented as fold change compared to control groups.

[3] = system: CC promoter activity in E006AA cells; experiment: Cytochrome c (CYCS) promoter reporter (luciferase) assay; type: cell-based, human; settings: CYCS-Luc transfected cells, 24 hrs
Description: Cytochrome c (CYCS) promoter reporter assay: CYCS promoter reporter clone and empty pLightSwitch vector were purchased from SwitchGear Genomics, Menlo Park, Calif. (Cat #S721763). The reporter construct was prepared by cloning −1000 bp of CYCS promoter from the transcription initiation site. Plasmids were transformed in DH5a E. Coli strain and were isolated using a Zymo Plasmid MidiPrep kit (Zymo research, cat #D4200). The Nrf1 binding site in the p-CYCS-SwichGear-Luc construct was deleted using a QuickChange II XL site-directed mutagenesis kit (Agilent Technologies, Wilmington, Del. Cat #200521). LNCaP and E006AA cells were seeded in 96 well plates and transfected with either pLightSwitch empty vector or CYCS promoter reporter clones using a lipofectamine 3000 transfection kit (ThermoFisher Scientific, Waltham, Mass.). Cells were harvested after 48 hrs. Luciferase activity assay was performed using LightSwitch Assay Reagent (SwitchGear Genomics, Menlo Park, Calif. Cat #LS010).

[4] = system: p-Drp1^S616 in E006AA cells; experiment: Immunoblot analysis of p-Drp1^S616 and Drp1; type: cell-based, human; settings: AA PCa cells; c-Myc I 75 μM, NF-κB I 50 μM, AKT Act 5 μM
Description: (§3) Immunoblotting: Immunoblotting was performed as described previously. Protein lysates were prepared using a lysis in NP-40 buffer (50 mM Tris-HCl pH 7.4, 150 mM NaCl, 1 mM EDTA, 1 mM EGTA, 1% NP-40) supplemented with protease and phosphatase inhibitor cocktail. Protein content was quantified using a micro BCA protein estimation kit (Thermo Scientific, Waltham, Mass.; Cat #23235). Protein samples were resolved on 4-20% Criterion gels, transferred on nitrocellulose membranes (BioRad, Hercules, Calif.) and subjected to immunoblotting. Membranes were blocked in 5% fat free dry milk (Blotto, Santa Cruz, Dallas, Tex.; Cat #sc-2324) prepared in PBS-T (Tween-20) and incubated overnight in primary antibodies (1:1000 dilution) at 4° C. with continuous shaking. After washing with PBS-T, membranes were incubated in HRP conjugated anti-mouse or anti-rabbit secondary antibody at room temperature for 1 hr. After washing with PBS-T, proteins were detected using Clarity chemiluminescent reagent (BioRad, Hercules, Calif.; Cat #1705061) and X-Ray films (ASI, Fort Lauderdale, Fla.; Cat #XR1570). Membranes were stripped using stripping buffer and probed with HRP conjugated beta-actin antibody to ensure equal loading of proteins.

E006AA cells [5] = experiment: Mitochondrial ROS production, MitoSOX dye, flow cytometry; type: cell-based, human
E006AA cells [6] = experiment: Clonogenic assay; type: cell-based, human
Description: Clonogenic assay: PCa cells were seeded in each well of 6 well cell culture plates. Cells were treated and plates were incubated in a CO2 cell culture incubator for 6 more days. Colonies were fixed in 10% formalin first and stained with 0.5% crystal violet solution. Plates were dried and pictures were captured using a Gel documentation system and Coomassie blue filter (Bio Rad, Hercules, Calif.).

E006AA hT xenografts = experiment: Human PCa xenograft study; type: in vivo, SCID mice; settings: 3 weeks
From the text: Human PCa xenograft study: SCID (C.B-Igh-1^b/IcrTac-Prkdc^[…]) mice (6 weeks old) were purchased from an in house colony maintained by Roswell Park Laboratory Animal Shared Resource. Animal protocols were approved by the Roswell Park Institutional Animal Care and Use Committee (IACUC protocol #1306M). E006AA hT cells (80% confluency) were harvested and live cells quantified. Harvested cells were washed and resuspended in serum-free DMEM/F-12 (1:1) mix. Four ×10^6 E006AA hT cells were mixed with Matrigel (1:1) and injected subcutaneously in the right and left flanks of each mouse. When xenograft tumors reached 5 mm in diameter (22 days post injection), mice were randomly divided into 6 groups of 4 mice. First group received 100 μl Neobee M5 oil (vehicle) and 100 μl normal saline each twice weekly. Second group received 100 μl Neobee M5 oil and DOC (6 mg/kg bw) twice weekly. Third group received 10058-F4 (20 mg/kg bw) and DOC (6 mg/kg bw) twice weekly. Fourth group received JSH-23 (3 mg/kg bw) and DOC (6 mg/kg bw) twice weekly. Fifth group received 10058-F4 (20 mg/kg bw) and normal saline twice weekly. Sixth group received JSH-23 (3 mg/kg bw) and normal saline twice weekly. All treatments were administered for 3 weeks. Mice were euthanized, tumors were excised and flash frozen in liquid nitrogen. The tissue lysates were used for caspase-3 activity and Western blotting of CC, cleaved PARP, and cleaved caspase-3 proteins.
as §3, §2

RC-77 T/E cells = experiment: Cell death, DEVDase activity and CC expression in a second AA PCa cell line; type: cell-based, human; settings: both AA PCa cell lines; for CC expression / caspase-3 activity: DOC with or without inhibitor, 24 hrs; for cell death: not as effective as in CA PCa cells
Description: as §3, §1, §2

[7] = combined treatment with DOC (24 hrs)
[8] = in combination with DOC (6 mg/kg bw) twice weekly
[9] = inhibitor alone, 10058-F4 20 mg/kg bw or JSH-23 3 mg/kg bw twice weekly

| Molecule | cell death (E006AA cells [1]) | caspase-3 activation (E006AA cells [2]; agent alone) | caspase-3 activation (E006AA cells [2]; [7]) | CYCS promoter activity (luciferase) [3] | levels of p-Drp1^S616 [4] | MitoROS production (E006AA cells [5]; agent alone) | MitoROS production (E006AA cells [5]; in combination with DOC) | colony forming ability (CFA) (E006AA cells [6]; with DOC) | colony forming ability (CFA) (E006AA cells [6]; without DOC) | CC expression in xenografts (E006AA hT xenografts; [8]) | PARP cleavage in xenografts (E006AA hT xenografts; [8]) | caspase-3 activation in xenografts (E006AA hT xenografts; [8]) | CC expression in xenografts (E006AA hT xenografts; [9]) | CC expression (RC-77 T/E cells) | caspase-3 activity (RC-77 T/E cells) | cell death (RC-77 T/E cells) |
| --- | --- | --- | --- | --- | --- | --- | --- | --- | --- | --- | --- | --- | --- | --- | --- | --- |
| Cc1ccc(NCCCc2ccccc2)c(N)c1 [NF-κB inhibitor, JSH-23] | enhanced cell death | only a modest increase | increased caspase-3 activation | increased the CYCS promoter activity | increased the levels of p-Drp1^S616 | MitoROS production | MitoROS production | reduced the CFA | reduced the CFA | further upregulated | PARP cleavage | caspase-3 activation | induced CC expression | induced CC expression | activated caspase-3 activity | enhanced cell death |
| CCc1ccc(/C=C2/SC(=S)NC2=O)cc1 [c-Myc inhibitor, 10058-F4] | enhanced cell death | only a modest increase | increased caspase-3 activation | increased the CYCS promoter activity | increased the levels of p-Drp1^S616 | – | – | reduced the CFA | reduced the CFA | further upregulated | PARP cleavage | caspase-3 activation | induced CC expression | induced CC expression | activated caspase-3 activity | enhanced cell death |
| bisperoxovanadium 5-hydroxipyridine [AKT activator] | enhanced cell death | only a modest increase | increased caspase-3 activation | increased the CYCS promoter activity | increased the levels of p-Drp1^S616 | MitoROS production | MitoROS production | reduced the CFA | reduced the CFA | – | – | – | – | – | – | – |
